{RR} = two arginine residues at the PNA terminus

Series [1] deals with U2932 subcutaneous tumors. Put plainly: Tumor growth in U2932 derived xenograft model. The class given is in vivo, NSG mice. As to conditions: intra-tumoral injections days 0, 7, 14. Here is the method: Mouse tumor xenograft: Female NSG mice (NOD.Cg-Prkdcscid Il2rgtm1Wjl/SzJ, strain 005557) weighing 20-23 g were procured from Jackson laboratories. 1×10^7 U2932 cells suspended in RPMI-1640 medium were injected subcutaneously in the right and left flank of 6-week-old NSG mice. The mice developed a small bump in 2 weeks. When the tumor volume reached 100-200 mm^3, the mice were randomly assigned to the treatment group (n=6 per group).
RNA and Protein extraction from tumor samples: The mice were injected intra-tumorally with 1 mg kg-1 dose of PNA-155, γtcPNA-155, γPNA-155, Scr-γtcPNA-155 or were untreated. The injections were repeated two additional times after 1 week each. The length, breadth, and depth of the tumors were measured daily using a vernier caliper. The mice were euthanized when the tumor volumes reached 2000 mm^3. The resected tumor sections were finely minced using a sterile blade and suspended in dissociation media (4 ml) comprising of RPMI-1640, 1.2 mg/ml dispase, and 0.5 mg/ml collagenase for 90 mins at 500 rpm at 37° C. The dissociated tumors were washed with buffer saline at 2500 rpm (4 mins) at 4° C. and then suspended in 0.25% trypsin for 4 mins at room temperature. RPMI 1640 media was added to the trypsinized tumor mass, and the cells were passed through a 70 um filter. The cells were centrifuged at 2500 rpm for 4 mins at 4° C. The cell pellet was then suspended in 1×RBC lysis buffer (Sigma) and incubated on ice for 10 mins. PBS was added to the cells and the cells were passed through a 40 um filter. The cells were centrifuged at 2500 rpm for 4 mins at 4° C. The cell pellet was resuspended in 0.5% BSA in PBS. The mouse cells were removed from the tumor cells using a mouse cell depletion kit (Miltenyi Biotec) according to the manufacturer's protocol. The enriched tumor cells from each tumor sample were divided into two fractions. RNA for gene expression analysis was extracted from one tumor fraction by the same procedure as mentioned earlier. The protein for western blot analysis was extracted from the second fraction using the method described above.
For the efficacy study, each mouse received three intra-tumoral injections of either γtcPNA-155, γPNA-155 or PNA-155 on days 0, 7, 14. We noticed that the control and scrambled treated tumors reached 2000 mm^3 much faster during our study, so we could not inject a third time in these mice. […] In contrast, as stated earlier, there was no effect on the control and scrambled PNA control on the tumor volume.

The subject of series [2] is miR-155. Kind of series: miR-155 gene expression by RT-PCR in U2932 cells. The class given is cell-based, human. The following applies: U2932, 500 nM, 48 hours, relative to scrambled control. On the procedure:
FIGS. 3A-F show cell culture-based functional assay in U2932 lymphoma cells. (3A) γtcPNA-155-TAMRA uptake in the U2932 lymphoma cell line: Representative flow cytometry traces of TAMRA fluorescence in U2932 cells after treatment with 500 nM dose of γtcPNA-155-TAMRA for 48 hours. The data was analyzed by FlowJo software. (3B) Normalized miR-155 gene expression levels in U2932 after treatment with phosphate buffer saline (PBS) as a control and with 500 nM dose of Scr-γtcPNA-155, PNA-155, γPNA-155 and γtcPNA-155 for 48 hours compared to average control U6 (n=3), data represented as mean±standard error mean (SEM), Statistical analysis was performed using Unpaired two-tailed t-test. Further, statistical analysis was performed relative to Scr-γtcPNA-155 treated cells. ***p<0.001. (3C) Gene expression level of miR-155 downstream genes, tumor suppressor proteins (FOXO3A, CUX1, SOCS1, CSF1R, JARID2, SHIP1, PICALM, PDCD4, BACH1, WEE1, TP53TG3, CASP3, PTEN) in U2932 cell line after treatment with PBS as a control and with after treatment with 500 nM of Scr-γtcPNA-155, PNA-155, γPNA-155 and γtcPNA-155 for 48 hours. Data is normalized with average GAPDH control (n=3), and represented as mean±SEM, *p<0.05. Unpaired two-tailed t-test was used for statistical analysis and analysis was performed relative to Scr-γtcPNA-155 treated cells. (3D) Gene expression level of miR-155 downstream genes MCL1 in U2932 cell line after treatment with PBS as a control and 500 nM of Scr-γtcPNA-155, PNA-155, γPNA-155 and γtcPNA-155 for 48 hours. Data is normalized with average GAPDH control (n=3), and represented as mean±SEM, *p<0.05, **p<0.01 and ***p<0.001. […] (3E) Representative western blot of Mcl-1 and its quantification (n=3 technical replicate) and (3F) Caspase-3 protein and its quantification (n=3 technical replicate) in U2932 cell line after treatment with 500 nM of Scr-γtcPNA-155, PNA-155 and γtcPNA-155 for 48 hours. […] Numbers above western blot panels represent relative quantification of the respective bands using ImageJ software and normalized relative to loading control and treatment control. […]

As for “PNA-155: conventional full-length regular PNA (23mer), RR-ACCCCTATCACGATTAGCATTAA-RR, SEQ ID NO: 1 (all peptide nucleic acid (PNA), 5' {RR}, 3' {RR}) [reference compound]”, the “tumor growth / tumor volume” value in series [1] is “reduced the tumor growth”. In addition, the miR-155 inhibition entry in series [2] was “approximately 80%”.
For “γtcPNA-155: serine gamma tail-clamp anti-miR-155 PNA, RR-TJJJJ-OOO-ACCCCTATCACGATTAGCATTAA-RR, SEQ ID NO: 3 (all peptide nucleic acid (PNA); serine gamma PNA, tail-clamp TJJJJ via linkers, Arg-Arg at both ends)” the same measures were “reduced the tumor growth” and about 90%.

The values are drawn from patent US20260092085A1, “SYNTHETIC TRIPLEX PEPTIDE NUCLEIC ACID-BASED INHIBITORS FOR CANCER THERAPY” (University of Connecticut, priority 2022, published 2026).
